Patent US7415306B2, “Transdermal delivery system for anti-emetic medication” (TransPharma Medical Ltd., priority 2002, dated 2008)
Where a name gives a salt, the structure may show the parent alone.

Legend:
[1] = Clinical bioavailability study with granisetron patches and ViaDerm versus oral delivery (plasma levels, irritation); details: human, 1 tablet of 1 mg twice daily, reached only for short time periods, unsteady profile
Experimental: Granisetron HCl patches were applied on the skin of the upper arm and fore arm of healthy adult volunteers. […] Irritation was examined by monitoring edema and erythema as described in Example 6.
The experiment was conducted with six subjects, in a crossover manner. Each subject received four different treatments, i.e. various administration methods at various sites of patch application, with at least six days washout period between treatments.
ViaDerm performance was assessed by a study conducted with twenty healthy, adult volunteers, 10 males and 10 females. […] Each subject received 10 treatments, in a randomized manner such that a given treatment was applied to different subjects and/or in each subject at different sites. • Treatment protocol. The treatment sites were the inner arm and hand. […] Measuring Transdermal Water Loss (TEWL) at a skin site treated with ViaDerm in comparison to an adjacent untreated skin assessed formation of micro-channels. […]

[2] = Clinical patch-size study with granisetron patches and ViaDerm (plasma levels, erythema/edema)
Text: The purpose of the first phase study was to determine patch size per drug dose. The target population for the study was healthy male and female volunteers who signed informed consent and fulfilled the following inclusion criteria: • 1. Are capable of understanding and signing an informed consent • 2. Are between the ages of 18 and 60 years • 3. Are medically stable • 4. Have fair skin color that enable to observe erythema and/or edema. • 5. Have two hands with no obvious marks, bruises, cuts, and abrasions on the back of the hand. • 6. Hemoglobin more than 12 gm % in females and more than 14 gm % in males.
Granisetron HCl patches were applied on the skin of the upper arm and fore arm of healthy adult volunteers. […] Irritation was examined by monitoring edema and erythema as described in Example 6. […]
ViaDerm performance was assessed by a study conducted with twenty healthy, adult volunteers, 10 males and 10 females. […] Measuring Transdermal Water Loss (TEWL) at a skin site treated with ViaDerm in comparison to an adjacent untreated skin assessed formation of micro-channels. Safety of ViaDerm was evaluated by measuring irritation (erythema and edema) at the treatment site using a scale of zero to eight in accordance with Draize irritation index (Table 4). The response to irritation induced by ViaDern was assessed by a Cumulative Irritation Index (Table 5). […]

[3] = Pharmacokinetic study of transdermal drug delivery in rats (granisetron hydrogel patch with or without ViaDerm); type: in vivo, Male Sprague-Dawley rats; details: 3% granisetron HCl hydrogel patch
Experimental: Male Sprague-Dawley rats (400-500 g, Harlan Laboratories Ltd., Jerusalem, Israel) were anesthetized (5 mg/kg ketamine i.p.) and were placed dorsally. Anesthesia was maintained until the end of the transdermal treatment and during blood sampling by injections of 0.1 ml ketamine and Xyalzine (60-80 mg/ml) every 30-40 min. The abdominal skin was shaved and cleaned with isopropyl alcohol. After 30 minutes, the transepidermal water loss was measured in order to verify skin integrity and RF-micro-channeling took place on the abdominal skin of a test group. […] A granisetron patch, made of a solution of 3% granisetron HCl soaked in a hydrogel sheet of 1.4 cm , was then attached to the skin surface for 24 hr in special containers glued to the skin by silicon medical glue. Blood samples were taken from the heart into heparinized tubes. After centrifugation, plasma samples were kept at −20° C. until analyzed for drug levels by HPLC.
The procedure was basically performed according to Kudoh et al, J. Chromatography 660(1994) p. 205. Phosphate buffer (500 μl, pH 7, 67 mM) was mixed with one ml plasma. […] Aliquots (30 μl) from each sample were injected into the HPLC (1050 HP), equipped with a pre-packed C8 column (BDS-Hypersil, UK; C-8 100×3.0 mm, 3 μm), an auto-sampler, and a fluorescence detector (Model 1046A). Granisetron was detected by excitation at 305 nm and emission at 365 nm. […]

maximal plasma concentration ([2]; human, ViaDerm + granisetron patch (3% drug) covering 5.6 cm^2, applied 24 hours): above 4 ng/ml | granisetron plasma level (peak) ([3]; rats not treated with ViaDerm, peak at 2.5 hours after application): lower than 50 ng/ml | granisetron plasma level ([3]; rats pretreated with ViaDerm, reached during first 12 hours, maintained for additional 12 hours): above 200 ng/ml
Compound: CN1C2CCCC1CC(NC(=O)c1nn(C)c3ccccc13)C2 (centres unmarked) [granisetron, granisetron hydrochloride]
plasma levels of granisetron [1]: above 4 ng/ml | maximal concentration of granisetron in human plasma versus patch size ([2]; ViaDerm + patches of 2.8, 5.6 and 8.4 cm^2): linearly correlated with the size of patch
